Consider six compounds from patent US20130089599A1, “NANO-ENCAPSULATED THERAPEUTICS FOR CONTROLLED TREATMENT OF INFECTION AND OTHER DISEASES” (The United States of America as Represented by the …, priority 2011, published 2013).

Converted amounts (≈) assume the structure as drawn.

In one data set the test system is A. bumannii. Put plainly: in vitro antibacterial activity (MIC50). The class given is cell-based. The conditions noted are these: for Amount of Antimicrobial Agent required for Inhibition / in vitro antibacterial activity of individual antibiotic (MIC50) / MIC50: A. bumannii; for reduction of MIC50 of Rifampicin in cocktail with silver (control = 1) / reduction of MIC50 of Tobramycin in cocktail with silver (control = 1): A. baumannii.

A further data set concerns P. mirabilis. Nature of the data set: in vitro antibacterial activity (MIC50). The class given is cell-based.
Data set [1] deals with P. aeruginosa. Nature of the data set: in vitro antibacterial activity (MIC50). The class given is cell-based.
For data set [2], the system named is 4 bacterial strains (A. bumannii, P. aeruginosa, P. mirabilis and S. aureus). Put plainly: in vitro antibacterial activity (MIC50), summary over strains. The conditions noted are these: against all 4 bacterial strains. The class given is cell-based.
Data set [3] relates to P. aeruginosa. Nature of the data set: MIC50 for inhibition ring formation (MICfir), agar plate. The class given is cell-based. The settings on record: Pseudomonas aeruginosa; P.a; read-out: 50% minimum inhibitory concentrations (MIC50) needed for growth ring formation.
For data set [4], the system named is S. aureus. Put plainly: in vitro antibacterial activity (MIC50). The class given is cell-based. The settings on record: for MIC50: Staphylococcus aureus.
The subject of a further data set is P.m. Nature of the data set: MIC50 for inhibition ring formation (MICfir), agar plate. The class given is cell-based. The settings on record: Proteus mirabilis, read-out: 50% minimum inhibitory concentrations (MIC50) needed for growth ring formation.
The subject of data set [5] is S. aureus methicillin resistant strain. Described as above. The class given is cell-based. The settings on record: Staphylococcus aureus, MRSA; read-out: 50% minimum inhibitory concentrations (MIC50) needed for growth ring formation.
The subject of data set [6] is S. aureus. Described as above. The class given is cell-based. The settings on record: Staphylococcus aureus; S.a; read-out: 50% minimum inhibitory concentrations (MIC50) needed for growth ring formation.
Data set [7] deals with A. baumannii. The data set is described as above. The class given is cell-based. The settings on record: Acinetobacter baumannii; A.b; read-out: 50% minimum inhibitory concentrations (MIC50) needed for growth ring formation.
The next data set has as its system K. pneumoniae. The description is as above. The class given is cell-based. The conditions noted are these: Klebsiella pneumoniae; K.p; read-out: 50% minimum inhibitory concentrations (MIC50) needed for growth ring formation.
Data set [8] concerns A. baumannii. Put plainly: effect of storage time on antibiotic functionality. The settings on record: 1 mg/ml solution stored at 37° C., day 0 to day 35. The class given is physicochemical. The procedure: The effect of storage time on antibiotic functionality of tobramycin and rifampicin against A. baumannii were also tested. Tobramycin and rifampicin solutions (1 mg/ml in water and DMSO, respectively) were kept at room temperature (24° C.) or 37° C. for up to 35 days, and the antimicrobial activities of the antibiotics at different time points were tested by applying the antibiotics to A. Baumannii. MIC50 were determined and compared. […] P values for tobramycin and rifampicin (from day 0 to day 35) are 0.593 and 0.442 respectively (FIG. 3)

`CCC[C@@H]1C[C@@H](C(=O)N[C@@H]([C@H]2O[C@H](SC)[C@H](O)[C@@H](O)[C@H]2O)[C@H](C)Cl)N(C)C1` [Clindamycin]: the “Amount of Antimicrobial Agent required for Inhibition” value (“Amount … for Inhibition” below) was 2.72 ± 0.68 mg/mL with A. bumannii, 23.88 ± 8.43 mg/mL in the data set with P. mirabilis and more than 1000 mg/mL with P. aeruginosa [1]. Further, the “in vitro antibacterial activity of individual antibiotic (MIC50)” value (from here on “in vitro antibacterial activity”) in the data set with A. bumannii is 2.72 ± 0.68 mg/mL; in the data set with P. mirabilis, 23.88 ± 8.43 mg/mL; in the data set on P. aeruginosa [1], more than 1000 mg/mL.
As for `C[C@@H](O)[C@H]1C(=O)N2C(C(=O)O)=C(SCCN=CN)C[C@H]12` [Imipenem], the “Amount … for Inhibition” value in the data set with A. bumannii worked out at 10.25 ± 2.33 mg/mL; in the data set with P. mirabilis, 1.02 ± 0.01 mg/mL; in the data set on P. aeruginosa [1] it was 0.91 ± 0.56 mg/mL. Moreover, the entries for the “in vitro antibacterial activity” value with A. bumannii, in the data set with P. mirabilis and with P. aeruginosa [1] were 10.25 ± 2.33 mg/mL, 1.02 ± 0.01 mg/mL and 0.91 ± 0.56 mg/mL, respectively. For the same compound, in data set [2], the MIC50 was less than 0.01 mg/mL.
Regarding `CO[C@H]1/C=C/O[C@@]2(C)Oc3c(C)c(O)c4c(O)c(c(/C=N/N5CCN(C)CC5)c(O)c4c3C2=O)NC(=O)/C(C)=C\C=C\[C@H](C)[C@H](O)[C@@H](C)[C@@H](O)[C@@H](C)[C@H](OC(C)=O)[C@@H]1C` [Rifampicin], the MIC50 was 0.185 ± 0.0158 mg/mL (≈ 225 µM) in the data set with P. aeruginosa [3]; not above 0.001 mg/mL against S. aureus [4]; not above 0.001 mg/mL against A. bumannii; 0.026 ± 0.0035 mg/mL (≈ 31.6 µM) with P.m; 0.02 ± 0.001 µg/mL (≈ 0.0243 µM) in data set [5]; 0.02 ± 0.001 µg/mL (≈ 0.0243 µM) in the data set with S. aureus [6]. Also, the MIC50 was 0.045 ± 0.0026 mg/mL (≈ 54.7 µM) in the data set on A. baumannii [7], 0.045 ± 0.0036 mg/mL (≈ 54.7 µM) in the data set on K. pneumoniae and less than 0.01 mg/mL in data set [2]. The “Amount … for Inhibition” value was 0.085 ± 0.01 mg/mL in the data set on A. bumannii, 3.77 ± 0.92 mg/mL in the data set with P. mirabilis and 19.08 ± 6.14 mg/mL in the data set with P. aeruginosa [1]. In addition, the “in vitro antibacterial activity” value in the data set on A. bumannii is 0.085 ± 0.01 mg/mL; in the data set with P. mirabilis, 3.77 ± 0.92 mg/mL; in the data set on P. aeruginosa [1] it was 19.08 ± 6.14 mg/mL.
For `[Ag+]` [Silver Ion], the “reduction of MIC50 of Rifampicin in cocktail with silver (control = 1)” value in the data set with S. aureus [4] (Silver Ion at Mic 12.5) was determined as 1 fold; in the data set with S. aureus [4] (Silver Ion at Mic 25), 9.3 fold; with S. aureus [4] (Silver Ion at Mic 50), 21 fold; with A. bumannii (Silver Ion at Mic 12.5) it was 1.73 fold; in the data set on A. bumannii (Silver Ion at Mic 25) it was 3.6 fold; in the data set on A. bumannii (Silver Ion at Mic 50), 9 fold. The “reduction of MIC50 of Rifampicin in cocktail with silver (control = 1)” value turned out to be 0.74 fold in the data set with P. mirabilis (Silver Ion at Mic 12.5); 2.4 fold with P. mirabilis (Silver Ion at Mic 25); 6.3 fold with P. mirabilis (Silver Ion at Mic 50); 1.6 fold with P. aeruginosa [1] (Silver Ion at Mic 12.5); 4.1 fold in the data set with P. aeruginosa [1] (Silver Ion at Mic 25); 10.4 fold with P. aeruginosa [1] (Silver Ion at Mic 50). The “reduction of MIC50 of Tobramycin in cocktail with silver (control = 1)” value with S. aureus [4] (Silver Ion at Mic 12.5) turned out to be 1.13 fold; in the data set with S. aureus [4] (Silver Ion at Mic 25), 9.3 fold; with S. aureus [4] (Silver Ion at Mic 50), 21 fold; in the data set with A. bumannii (Silver Ion at Mic 12.5) it was 2 fold; with A. bumannii (Silver Ion at Mic 25) it was 4.2 fold; in the data set with P. mirabilis (Silver Ion at Mic 12.5), 0.74 fold. The “reduction of MIC50 of Tobramycin in cocktail with silver (control = 1)” value was 2.5 fold in the data set with P. mirabilis (Silver Ion at Mic 25); 6.5 fold in the data set with P. mirabilis (Silver Ion at Mic 50); 1.6 fold in the data set on P. aeruginosa [1] (Silver Ion at Mic 12.5); 4.1 fold with P. aeruginosa [1] (Silver Ion at Mic 25); 10.4 fold in the data set on P. aeruginosa [1] (Silver Ion at Mic 50). Besides, the figures for the “Amount … for Inhibition” value in the data set with A. bumannii, in the data set on P. mirabilis and in the data set on P. aeruginosa [1] were 1.52 ± 0.73 mg/mL, 4.56 ± 1.49 mg/mL and 5.34 ± 3.07 mg/mL, respectively.
Take `NC[C@H]1O[C@H](O[C@H]2[C@H](O)[C@@H](O[C@H]3O[C@H](CO)[C@@H](O)[C@H](N)[C@H]3O)[C@H](N)C[C@@H]2N)[C@H](N)C[C@@H]1O` [Tobramycin]: the “change of MIC50 on storage (antibiotic functionality)” value in the data set on A. baumannii [8] is reported as “no significantly change”. Moreover, the MIC50 is 0.0056 ± 0.0002 mg/mL (≈ 12 µM) with P. aeruginosa [3]; not above 0.001 mg/mL with S. aureus [4]; not above 0.001 mg/mL in the data set on A. bumannii; 0.0031 ± 0.0002 mg/mL (≈ 6.63 µM) with P.m; more than 200 µg/mL in data set [5]; 2.2 ± 0.16 µg/mL (≈ 4.71 µM) in the data set on S. aureus [6]. For the same compound, the MIC50 with A. baumannii [7] is 0.0071 ± 0.0005 mg/mL (≈ 15.2 µM); in the data set with K. pneumoniae, 0.00038 ± 5e-05 mg/mL (≈ 0.813 µM); in data set [2], less than 0.01 mg/mL. Moreover, the entries for the “Amount … for Inhibition” value in the data set with A. bumannii, in the data set with P. mirabilis and in the data set on P. aeruginosa [1] were 1.05 ± 0.02 mg/mL, 7.2 ± 0.73 mg/mL and 0.44 ± 0.12 mg/mL, respectively. Further, the “in vitro antibacterial activity” value is 1.05 ± 0.02 mg/mL in the data set on A. bumannii, 7.2 ± 0.73 mg/mL in the data set on P. mirabilis and 0.44 ± 0.12 mg/mL in the data set on P. aeruginosa [1].
Turning to `CN[C@H](CC(C)C)C(=O)N[C@H]1C(=O)N[C@@H](CC(N)=O)C(=O)N[C@H]2C(=O)N[C@H]3C(=O)N[C@H](C(=O)N[C@H](C(=O)O)c4cc(O)cc(O)c4-c4cc3ccc4O)[C@H](O)c3ccc(c(Cl)c3)Oc3cc2cc(c3O[C@@H]2O[C@H](CO)[C@@H](O)[C@H](O)[C@H]2O[C@H]2C[C@](C)(N)[C@H](O)[C@H](C)O2)Oc2ccc(cc2Cl)[C@H]1O` [Vancomycin], the “Amount … for Inhibition” value is 79.4 ± 4.1 mg/mL in the data set with A. bumannii, more than 1000 mg/mL in the data set with P. mirabilis and more than 1000 mg/mL with P. aeruginosa [1]. In addition, the “in vitro antibacterial activity” value is 79.4 ± 4.1 mg/mL in the data set with A. bumannii, more than 1000 mg/mL in the data set with P. mirabilis and more than 1000 mg/mL in the data set with P. aeruginosa [1].
